According to EP2527319A1, “Crystalline forms of pregabalin and co-formers in the treatment of pain” (Laboratorios del. Dr. Esteve, S.A., priority 2011, dated 2012):
In brackets after ≈: the same amount, converted by molar mass. Like-named read-outs stand apart in the source and are kept apart here.

Tests used:
[1] = for Hygroscopicity: storage at ambient and humidity (40 C, 85-95% RH) conditions; for Hygroscopicity (85-95%): summary table, 85-95% RH, result in words
[2] = for hygroscopicity (classification from DVS): 15 to 95% RH, result in words; for hygroscopicity (classification from DVS) / Δ %weight 24 h: DVS; for Δ %weight 24 h: humidity increased stepwise from 15 to 95% RH at constant temperature; for Hygroscopicity (85-95%): summary table, same figures as Δ %weight 24 h of Table 1
Procedure: The objective was to measure the hygroscopicity of some crystalline forms of the present invention. The percentage increase of mass was calculated in order to evaluate the adsorption of water in the samples.
Dynamic Vapour Sorption (DVS) analysis is a technique specifically designed to provide information related to material response to changes in relative humidity and T°C. A Q5000 SA DVS equipment from TA Instruments was used for running the experiment.
The variation of the weight is controlled and the following percentage is calculated: Δ %weight = (Pn-P1)/P1 x 100 [formula] wherein: P1 is the initial weight , Pn is the weight measured for the sample.

[3] = pH 7.4; free form; cited from earlier work

Row | Structure (SMILES) | Hygroscopicity [1] | Hygroscopicity (85-95%) [1] | hygroscopicity (classification from DVS) [2] | Δ %weight 24 h [2] | solubility in water [3] [mg/mL] | hygroscopicity (classification from DVS) ([2]; listed as sample 1) | Hygroscopicity (85-95%) [2] [%]
1 | CC(C)C[C@H](CN)CC(=O)O.CCCCCCCCCCCC(=O)O [Example 11, (S)-Pregabalin - lauric acid (1:1)] | non-hygroscopic | Non-hygroscopic | not hygroscopic | 0% | – | – | –
2 | CC(C)C[C@H](CN)CC(=O)O [PGB free base, (S)-3-(aminomethyl)-5-methylhexanoic acid, reference compound] | – | Non-hygroscopic | – | – | 32 (≈ 201 mM) | – | –
3 | CC(C)C[C@H](CN)CC(=O)O.Cl.O=C(O)[C@@H]1CCCN1 [Example 6, (S)-Pregabalin - L-proline - HCl (1:1:1)] | hygroscopic tendencies, particularly at humid conditions, to such an extent that it liquefied | – | deliquescent | 95% | – | sufficient water was absorbed to form a liquid | 95
4 | CC(C)C[C@H](CN)CC(=O)O.CC(C)C[C@H](CN)CC(=O)O.O.O=C(O)/C=C\C(=O)O.O=C(O)/C=C\C(=O)O [Example 7, (S)-Pregabalin - maleic acid - H2O (1:1:0.5)] | – | – | very hygroscopic | 37,9% | – | – | 37.9
